Results taken from patent publication US20240067693A1, “POLYPEPTIDES AND USES THEREOF” (MEDIMMUNE LIMITED, priority 2020, published 2024).
Numbered stars: 1 amine (or outer) side, 2 acyl side, 3 side chain; on linkers, the order of the positions; unused ones are H or OH. Bridge positions count the residues as written; N and C are the ends. Square brackets hold non-standard residues; d marks the D form. Side chains are listed from the residue outwards. Peptide text beside a SMILES is read from it. * marks the point of attachment. C18 diacid = O=C(O)CCCCCCCCCCCCCCCCC(=O)*; γGlu = O=C(O)[C@H](CCC(=O)[*:2])N[*:1]; Aib = CC(C)(N)C(=O)O

Tests used:
[1] = target: T1, human amylin receptor (calcitonin receptor co-expressed with receptor activity modifying protein, RAMP3) (hAMYR3) (Homo sapiens, UniProt O60896+P30988); test: cAMP production in 1321N1 cells with stable recombinant expression of human amylin receptor (hAMYR3); assay type: cell-based; settings: for Ratio (selectivity hAMYR vs hCTR, ratio of EC50 values at the two receptors): EC50 hCTR / EC50 hAMYR3; for EC50: cAMP, 1321N1 cells, assay buffer with 0.1% BSA, read-out: EC50 (pM) hAMYR3
T1 construct: expressed in transfected cells
T1 sequence (P30988 25-474): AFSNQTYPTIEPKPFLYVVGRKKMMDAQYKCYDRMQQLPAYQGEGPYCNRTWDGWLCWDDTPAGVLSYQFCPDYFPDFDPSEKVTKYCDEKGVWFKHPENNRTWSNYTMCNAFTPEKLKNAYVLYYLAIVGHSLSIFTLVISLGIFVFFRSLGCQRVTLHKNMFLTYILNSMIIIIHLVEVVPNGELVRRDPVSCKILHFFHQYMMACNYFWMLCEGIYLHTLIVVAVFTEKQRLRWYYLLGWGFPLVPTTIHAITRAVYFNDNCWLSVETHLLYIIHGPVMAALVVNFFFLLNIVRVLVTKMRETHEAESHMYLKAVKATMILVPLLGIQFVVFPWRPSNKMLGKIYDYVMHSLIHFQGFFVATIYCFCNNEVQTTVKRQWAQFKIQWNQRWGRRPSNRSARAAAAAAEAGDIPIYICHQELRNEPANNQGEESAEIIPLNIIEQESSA
T1 sequence (O60896 24-148 partner): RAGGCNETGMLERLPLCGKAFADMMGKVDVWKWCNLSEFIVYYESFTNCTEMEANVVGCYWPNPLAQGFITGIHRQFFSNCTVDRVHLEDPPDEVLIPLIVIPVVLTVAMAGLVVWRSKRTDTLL
Procedure, shortened: (§1)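 Receptor-expressing cells (human receptors in 1321N1, rat receptors in HEK) incubated 30 min at room temperature with peptide in HBSS/HEPES pH 7.4, 0.1% BSA, 0.5 mM IBMX. cAMP read by HTRF; EC50 from 4-parameter fit as % of maximal amylin or calcitonin response.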

[2] = target: T2, human calcitonin receptor (hCTR) (Homo sapiens, UniProt P30988); test: cAMP production in 1321N1 cells with stable recombinant expression of human calcitonin receptor (hCTR); assay type: cell-based; settings: cAMP, 1321N1 cells, assay buffer with 0.1% BSA; read-out: EC50 (pM) hCTR
T2 construct: expressed in transfected cells
T2 sequence (P30988 25-474): T1 sequence (P30988 25-474)
Procedure, shortened: as §1

Compound | Ratio (selectivity hAMYR vs hCTR, ratio of EC50 values at the two receptors) [1] | EC50 [1] [pM] | EC50 [2] [pM]
CC[C@H](C)[C@H](NC(=O)[C@@H]1CCCN1C(=O)CNC(=O)[C@H](Cc1ccccc1)NC(=O)[C@H](CC(N)=O)NC(=O)C(C)(C)NC(=O)[C@H](CO)NC(=O)[C@H](CO)NC(=O)[C@H](Cc1c[nH]cn1)NC(=O)[C@@H](NC(=O)[C@H](CC(C)C)NC(=O)[C@H](Cc1ccccc1)NC(=O)[C@H](CC(N)=O)NC(=O)[C@H](C)NC(=O)[C@H](CC(C)C)NC(=O)[C@H](CCCNC(=N)N)NC(=O)[C@H](CCC(N)=O)NC(=O)[C@@H](NC(=O)[C@H](C)NC(=O)[C@@H]1CSSC[C@H](NC(=O)[C@H](CCCCN)NC(=O)[C@@H](N)CCCCNC(=O)CC[C@H](NC(=O)CCCCCCCCCCCCCCCCC(=O)O)C(=O)O)C(=O)N[C@@H](CC(N)=O)C(=O)N[C@@H]([C@@H](C)O)C(=O)N[C@@H](C)C(=O)N[C@@H]([C@@H](C)O)C(=O)N1)[C@@H](C)O)C(C)C)C(=O)NC(C)(C)C(=O)N1CCC[C@H]1C(=O)N1CCC[C@H]1C(=O)N[C@H](C(=O)N[C@@H](CC(N)=O)C(=O)N[C@H](C(=O)NCC(=O)N[C@@H](CO)C(=O)N[C@@H](CC(N)=O)C(=O)N[C@H](C(=O)N[C@@H](Cc1ccc(O)cc1)C(N)=O)[C@@H](C)O)C(C)C)[C@@H](C)O [Peptide 79, K(γE-C18diacid)K[CNTATC]ATQRLANFLVHSS(Aib)NFGPI(Aib)PPTNVGSNTY-amide] (H-K([γGlu-C18 diacid])KCNTATCATQRLANFLVHSS[Aib]NFGPI[Aib]PPTNVGSNTY-NH2; disulfide 3-8) | 7 | 659 | 4800
CC[C@H](C)[C@H](NC(=O)[C@@H]1CCCN1C(=O)C(C)(C)NC(=O)[C@H](Cc1ccccc1)NC(=O)[C@H](CC(N)=O)NC(=O)[C@H](CC(N)=O)NC(=O)[C@H](CO)NC(=O)[C@H](CO)NC(=O)[C@H](Cc1c[nH]cn1)NC(=O)[C@@H](NC(=O)[C@H](CC(C)C)NC(=O)[C@H](Cc1ccccc1)NC(=O)[C@H](CC(N)=O)NC(=O)[C@H](C)NC(=O)[C@H](CC(C)C)NC(=O)[C@H](CCCNC(=N)N)NC(=O)[C@H](CCC(N)=O)NC(=O)[C@@H](NC(=O)[C@H](C)NC(=O)[C@@H]1CSSC[C@H](NC(=O)[C@H](CCCCN)NC(=O)[C@@H](N)CCCCNC(=O)CC[C@H](NC(=O)CCCCCCCCCCCCCCCCC(=O)O)C(=O)O)C(=O)N[C@@H](CC(N)=O)C(=O)N[C@@H]([C@@H](C)O)C(=O)N[C@@H](C)C(=O)N[C@@H]([C@@H](C)O)C(=O)N1)[C@@H](C)O)C(C)C)C(=O)N[C@@H](CC(C)C)C(=O)N1CCC[C@H]1C(=O)N1CCC[C@H]1C(=O)N[C@H](C(=O)N[C@@H](CC(N)=O)C(=O)N[C@H](C(=O)NCC(=O)N[C@@H](CO)C(=O)N[C@@H](CC(N)=O)C(=O)N[C@H](C(=O)N[C@@H](Cc1ccc(O)cc1)C(N)=O)[C@@H](C)O)C(C)C)[C@@H](C)O [Peptide 110, K(γE-C18diacid)K[CNTATC]ATQRLANFLVHSSNNF(Aib)PILPPTNVGSNTY-amide] (H-K([γGlu-C18 diacid])KCNTATCATQRLANFLVHSSNNF[Aib]PILPPTNVGSNTY-NH2; disulfide 3-8; N-terminus assumed) | 3 | 204 | 541
CC[C@H](C)[C@H](NC(=O)[C@@H]1CCCN1C(=O)CNC(=O)[C@H](Cc1ccccc1)NC(=O)[C@H](CC(N)=O)NC(=O)C(C)(C)NC(=O)[C@H](CO)NC(=O)[C@H](CO)NC(=O)[C@H](Cc1c[nH]cn1)NC(=O)[C@H](CCCNC(=N)N)NC(=O)[C@H](CC(C)C)NC(=O)[C@H](Cc1ccccc1)NC(=O)[C@H](CC(N)=O)NC(=O)[C@H](C)NC(=O)[C@H](CC(C)C)NC(=O)[C@H](CCCNC(=N)N)NC(=O)[C@H](CCC(N)=O)NC(=O)[C@@H](NC(=O)[C@H](C)NC(=O)[C@@H]1CSSC[C@H](NC(=O)[C@@H](N)CCCCNC(=O)CC[C@H](NC(=O)CC[C@H](NC(=O)CCCCCCCCCCCCCCCCC(=O)O)C(=O)O)C(=O)O)C(=O)N[C@@H](CC(N)=O)C(=O)N[C@@H]([C@@H](C)O)C(=O)N[C@@H](C)C(=O)N[C@@H]([C@@H](C)O)C(=O)N1)[C@@H](C)O)C(=O)N[C@@H](CC(C)C)C(=O)N1CCC[C@H]1C(=O)N1CCC[C@H]1C(=O)N[C@H](C(=O)N[C@@H](CCCNC(=N)N)C(=O)N[C@H](C(=O)NCC(=O)N[C@@H](CO)C(=O)N[C@@H](CC(N)=O)C(=O)N[C@H](C(=O)N[C@@H](Cc1ccc(O)cc1)C(N)=O)[C@@H](C)O)C(C)C)[C@@H](C)O [Peptide 77, K(γE-γE-C18diacid)[CNTATC]ATQRLANFLRHSS(Aib)NFGPILPPTRVGSNTY-amide] (H-K([γGlu-γGlu-C18 diacid])CNTATCATQRLANFLRHSS[Aib]NFGPILPPTRVGSNTY-NH2; disulfide 2-7; N-terminus assumed) | 11 | 231 | 2520

Now those with a lower EC50 [1], led by results:

Ratio (selectivity hAMYR vs hCTR, ratio of EC50 values at the two receptors) [1] | EC50 [1] [pM] | EC50 [2] [pM] | Compound
14.7 | 61 | 898 | CC[C@H](C)[C@H](NC(=O)[C@@H]1CCCN1C(=O)CNC(=O)[C@H](Cc1ccccc1)NC(=O)[C@H](CC(N)=O)NC(=O)[C@H](CC(N)=O)NC(=O)[C@H](CO)NC(=O)[C@H](CO)NC(=O)[C@H](Cc1c[nH]cn1)NC(=O)C(C)(C)NC(=O)[C@H](CC(C)C)NC(=O)[C@H](Cc1ccccc1)NC(=O)[C@H](CC(N)=O)NC(=O)[C@H](C)NC(=O)[C@H](CC(C)C)NC(=O)[C@H](CCCNC(=N)N)NC(=O)[C@H](CCC(N)=O)NC(=O)[C@@H](NC(=O)[C@H](C)NC(=O)[C@@H]1CSSC[C@H](NC(=O)[C@@H](N)CCCCNC(=O)CC[C@H](NC(=O)CCCCCCCCCCCCCCCCC(=O)O)C(=O)O)C(=O)N[C@@H](CC(N)=O)C(=O)N[C@@H]([C@@H](C)O)C(=O)N[C@@H](C)C(=O)N[C@@H]([C@@H](C)O)C(=O)N1)[C@@H](C)O)C(=O)N[C@H](CC(C)C)C(=O)N1CCC[C@H]1C(=O)N1CCC[C@H]1C(=O)N[C@H](C(=O)N[C@@H](CC(N)=O)C(=O)N[C@H](C(=O)NCC(=O)N[C@@H](CO)C(=O)N[C@@H](CC(N)=O)C(=O)N[C@H](C(=O)N[C@@H](Cc1ccc(O)cc1)C(N)=O)[C@@H](C)O)C(C)C)[C@@H](C)O [Peptide 151, K(γE-C18diacid)[CNTATC]ATQRLANFL(Aib)HSSNNFGPI(dL)PPTNVGSNTY-amide] (H-K([γGlu-C18 diacid])CNTATCATQRLANFL[Aib]HSSNNFGPI[dL]PPTNVGSNTY-NH2; disulfide 2-7; N-terminus assumed)
2 | 82 | 176 | CC[C@H](C)[C@H](NC(=O)[C@@H]1CCCN1C(=O)CNC(=O)[C@H](Cc1ccccc1)NC(=O)C(C)(C)NC(=O)[C@H](CC(N)=O)NC(=O)[C@H](CO)NC(=O)[C@H](CO)NC(=O)[C@H](Cc1c[nH]cn1)NC(=O)[C@@H](NC(=O)[C@H](CC(C)C)NC(=O)[C@H](Cc1ccccc1)NC(=O)[C@H](CC(N)=O)NC(=O)[C@H](C)NC(=O)[C@H](CC(C)C)NC(=O)[C@H](CCCNC(=N)N)NC(=O)[C@H](CCC(N)=O)NC(=O)[C@@H](NC(=O)[C@H](C)NC(=O)[C@@H]1CSSC[C@H](NC(=O)[C@H](CCCCN)NC(=O)[C@@H](N)CCCCNC(=O)CC[C@H](NC(=O)CCCCCCCCCCCCCCCCC(=O)O)C(=O)O)C(=O)N[C@@H](CC(N)=O)C(=O)N[C@@H]([C@@H](C)O)C(=O)N[C@@H](C)C(=O)N[C@@H]([C@@H](C)O)C(=O)N1)[C@@H](C)O)C(C)C)C(=O)N[C@@H](CC(C)C)C(=O)N1CCC[C@H]1C(=O)N1CCC[C@H]1C(=O)N[C@H](C(=O)N[C@@H](CC(N)=O)C(=O)N[C@H](C(=O)NCC(=O)N[C@@H](CO)C(=O)N[C@@H](CC(N)=O)C(=O)N[C@H](C(=O)N[C@@H](Cc1ccc(O)cc1)C(N)=O)[C@@H](C)O)C(C)C)[C@@H](C)O [Peptide 109, K(γE-C18diacid)K[CNTATC]ATQRLANFLVHSSN(Aib)FGPILPPTNVGSNTY-amide] (H-K([γGlu-C18 diacid])KCNTATCATQRLANFLVHSSN[Aib]FGPILPPTNVGSNTY-NH2; disulfide 3-8; N-terminus assumed)
